Consider two compounds from patent US12721875B2, “Drug for treatment of breast cancer with antler and ginseng as sovereign drug and preparation method and application thereof” (Jilin University, priority 2024, dated 2026).

Structures are written as SMILES.

Series [1] concerns 4T1 breast cancer cells. Description: 4T1 triple-negative mice breast cancer model, second batch, DTX with or without medium dose preparation, 31 days. Type of series: in vivo, BALB/c mice. The procedure:
after the required amount of 4T1 breast cancer cells were cultured, the cells were resuspended in phosphate-buffered saline (PBS) after trypsin digestion and centrifugation, and the cells were counted and diluted to a cell concentration of 1×10^7 cells/mL. All mice were intraperitoneally injected with 50 mg/kg pentobarbital sodium and 0.5% lidocaine solution for infiltration anesthesia, under anesthesia, 0.1 mL cell suspension of each mouse was inoculated in the third pair of mammary fat pads on the left side, the cotton swab was pressed for a moment to avoid cell outflow after inoculation. During the inoculation process, the pipette blows the cell suspension to ensure uniform suspension.
experimental BALB/c mice were divided into 3 groups with 10 mice in each group. They were the PBS group, chemotherapy […] (DTX) group, and DTX+medium dose (0.85 mg/kg) group.
The mice were administered by gavage on the second day after tumor implantation, the DTX group was intraperitoneally injected with 0.2 mL of DTX, once a week. The DTX+medium dose group was intraperitoneally injected with DTX at the first and fourth weeks of inoculation and combined with the medium dose of Antler-Ginseng compound preparation. The tumor volume (L×W2×0.4) and body weight of mice were measured on the 7th day after inoculation. For a total of 31 days. Flow cytometry analysis: three mice in each group of PBS group and DTX+medium dose group were selected randomly for flow cytometry analysis of tumor tissue and spleen. All statistical analyses were performed by using GraphPad Prism 9.0, P<0.05 was considered statistically significant.
6. The Antler-Ginseng compound preparation reduces the course of chemotherapy and the frequency of medication, and the anti-tumor effect is better than the anti-tumor effect of single-agent chemotherapy. […]

In series [2] the test system is breast cancer. Description: Clinical observation and typical clinical cases of breast cancer patients. Type of series: in vivo, human. Conditions: clinical case 1, Abemaciclib and Fulvestrant for 3 days.

For the compound `CC(=O)O[C@@]12CO[C@@H]1C[C@H](O)[C@@]1(C)C(=O)[C@H](O)C3=C(C)[C@@H](OC(=O)[C@H](O)[C@@H](NC(=O)OC(C)(C)C)c4ccccc4)C[C@@](O)([C@@H](OC(=O)c4ccccc4)[C@H]21)C3(C)C` [DTX, docetaxel], the “body weight of the experimental animals” value in series [1] (DTX once a week, combination with halved chemotherapy frequency plus medium dose preparation) is recorded as “significantly reduced”. In series [1] (P<0.05), the “tumor volume compared with the PBS group” value is recorded as “significantly lower” and the “tumor weight compared with the PBS group” value is “significantly lower”.
In the case of `CCN1CCN(Cc2ccc(Nc3ncc(F)c(-c4cc(F)c5nc(C)n(C(C)C)c5c4)n3)nc2)CC1` [Abemaciclib], the “increase of transaminase (liver function)” value in series [2] worked out at 10 times.
